Test results from patent US20050288379A1, “Benzoquinone compounds as anti-cancer agents” (priority 2004, published 2005).

System: Human cancer cell lines Eca-109, AGS, BGC-823, DU145, SPC-A-1, Caco-2, LS-174T, A375, Raji, MCF-7, Bcap-37, HepG2
Assay: In vitro MTT assay of inhibition of cancer cell growth
Type: cell-based
Details: 12 human cancer cell lines, 48 hrs incubation, IqA 0.3-100 μg/ml, IqB 0.03-10 μg/ml, absorbance 492 nm, IC50 values calculated but not given
Description: An in vitro assay was conducted to evaluate the efficacy of IqA and IqB in inhibiting the growth of cancer cells.
Human cancer cell lines, i.e., Eca-109 (esophagus carcinoma cell line), AGS and BGC-823 (gastric adenocarcinoma cell lines), DU145 (prostate carcinoma cell line), SPC-A-1 (lung adenocarcinoma cell line), Caco-2 and LS-174T (colonic carcinoma cell lines), A375 (malignant melanoma cell line), Raji (Burkitt's lymphoma cell line), MCF-7 and Bcap-37 (breast carcinoma cell lines), HepG2 (hepatoma cell line), were purchased from the Cell Bank of Shanghai Institute of Cell Biology, Chinese Academy of Sciences, and cultured in Iscove's Modified Dulbecco's Medium (IMDM) containing 10% fetal bovine serum (FBS) in an incubator at 37° C. under 5% CO2. Cells of 70-80% confluence were trypsinized, resuspended in IMDM medium containing 10% FBS at 1×10^5 cells/ml, and seeded in 96-well plates (100 μl in each well). The plates were incubated at 37° C. under 5% CO2 overnight.
IqA and IqB were provided by Shandong Xinhua Pharmaceutical CO. Ltd. IqA and IqB stock solutions were prepared at the concentrations of 10 mg/ml and 1 mg/ml in dimethyl sulfoxide (DMSO), respectively. The IqA solution was diluted with the growth medium into a series of solutions at different concentrations. […]
150 μl of DMSO was added to each well. […] Absorbance was measured at 492 nm using a microplate reader. […]

Structure (SMILES)	inhibition of the proliferation of cancer cells
CCCCCC/C=C\CCCCCCCCCC1=CC(=O)C=C(OC)C1=O [IqA, irisqinone A]	effectively inhibited the proliferation
CCCCCCCCCCCCCCCCCC1=CC(=O)C=C(OC)C1=O [IqB, irisquinone B]	effectively inhibited the proliferation
